Source: patent US6228872A, “Neurotrophic diamide and carbamate agents” (Bristol-Myers Squibb Company, priority 1999, dated 2001)

Test system: not given
Experiment: not given
Settings: in vitro and in vivo; cited from earlier work

For `C=CC[C@@H]1/C=C(\C)C[C@H](C)C[C@H](OC)[C@H]2O[C@@](O)(C(=O)C(=O)N3CCCC[C@H]3C(=O)O[C@H](/C(C)=C/[C@@H]3CC[C@@H](O)[C@H](OC)C3)[C@H](C)[C@@H](O)CC1=O)[C@H](C)C[C@@H]2OC` [FK506], the neurotrophic properties is listed as “possess neurotrophic properties in vitro and in vivo”.

Target: FKBP12 (Homo sapiens, UniProt P62942)
Sequence (P62942 whole entry, species assumed): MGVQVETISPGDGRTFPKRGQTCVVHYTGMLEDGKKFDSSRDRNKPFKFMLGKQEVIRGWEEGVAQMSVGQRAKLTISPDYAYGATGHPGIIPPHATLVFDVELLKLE
Experiment: FKBP12 Rotamase Inhibition Assay
Assay type: biochemical
Settings: Table 1; 1 μM (values marked *); read-out: % inhib. at 1 μM*
Description: FKBP12 Rotamase Inhibition Assay
The rotamase activity of FKBP-12 was measured by an adaptation of the assay described by Kofron et al. (Biochemistry, 30, pp. 6127-6134 (1991)). The assay was carried out at 4° C. with 1 mg chymotrypsin/mL of assay with succinyl-Ala-Leu-Pro-Phe-p-nitroanilide as the substrate. Chymotrypsin rapidly hydrolyzes the peptide bond on the C-terminal side of the Phe of the trans form of the peptide and releases the chromogenic p-nitroaniline. The rate of the reaction is controlled by the rate of conversion of the cis form of the peptide to the trans-form, the reaction catalyzed by FKBP12. The apparent Ki values for inhibition of the rotamase activity were determined by measuring decreases in the first order rate constant of the reaction catalyzed by FKBP12 as a function of the concentrations of the compounds described herein. Ki is the concentration of the compound that causes 50 percent inhibition of rotamase activity which is indicative of neurite outgrowth activity.

For `COc1cc(C(F)(F)C(=O)N2CCC[C@H]2COC(=O)N(Cc2ccccc2)Cc2ccccc2)cc(OC)c1OC` [Example 24, N-(3,4,5-Trimethoxyphenyl)-difluoroacetyl-L-pyrrolidinylmethyl-[N',N'-dibenzylamino]carbamate], the inhibition at 1 µM was 34%.

Same assay, conditions: Table 1; 10 μM; read-out: % inhib. at 10 μM

Compared with `CC(C)(C)C(=O)C(=O)N1CCC[C@H]1COC(=O)NCCCc1ccccc1` [Example 6, N-Trimethylpyruvyl-L-pyrrolidinylmethyl-[N'-3-phenylpropylamino]carbamate], `CC(C)(C)C(=O)C(=O)N1CCC[C@H]1COC(=O)NCc1cccnc1` [Example 4, N-Trimethylpyruvyl-L-pyrrolidinylmethyl-[N'-3-pyridylmethylamino]carbamate] is lower in inhibition at 10 µM: 32% for the first, 12% for the second.

First: CC(C)(C)C(=O)C(=O)N1CCC[C@H]1COC(=O)N(Cc1ccccc1)Cc1ccccc1 [Example 2, N-Trimethylpyruvyl-L-pyrrolidinylmethyl-[N',N'-dibenzylamino]carbamate]
Second: CC(C)(C)C(=O)C(=O)N1CCC[C@H]1COC(=O)N(CCc1ccccc1)Cc1ccccc1 [Example 3, N-Trimethylpyruvyl-L-pyrrolidinylmethyl-[N',N'-2-phenylethyl-benzylamino]carbamate]
The inhibition at 10 µM of the first is lower: 27% for the first, 39% for the second.

For `COc1cc(C(=O)C(=O)N2CCC[C@H]2COC(=O)NCc2cccnc2)cc(OC)c1OC` [Example 8, N-(3,4,5-Trimethoxyphenyl)oxalyl-L-pyrrolidinylmethyl-[N'-3-pyridylmethylamino]carbamate], the inhibition at 10 µM was 11%.

Same assay, conditions: Table 2; 1 μM (values marked *); read-out: % inhib. at 1 μM*

Compared with `COc1cc(C(=O)C(=O)N2CCC[C@H]2COC(=O)N(CCCCc2ccccc2)CCCCc2cccnc2)cc(OC)c1OC` [Example 10, N-(3,4,5-Trimethoxyphenyl)oxalyl-L-pyrrolidinylmethyl-[N',N'-4-(3-pyridyl)butyl-4-phenylbutylamino]carbamate], `COc1cc(C(F)(F)C(=O)N2CCC[C@H]2COC(=O)N(CCCCc2ccccc2)CCCCc2cccnc2)cc(OC)c1OC` [Example 22, N-(3,4,5-Trimethoxyphenyl)-difluoroacetyl-L-pyrrolidinylmethyl-[N',N'-4-(3-pyridyl)butyl-4-phenylbutylamino]carbamate] is higher in inhibition at 1 µM: 52% for the first, 83% for the second.

For `COc1cc(C(F)(F)C(=O)N2CCC[C@H]2COC(=O)N(CCCCc2cccnc2)CCCc2ccccc2)cc(OC)c1OC` [Example 29, N-(3,4,5-Trimethoxyphenyl)-difluoroacetyl-L-pyrrolidinylmethyl-[N',N'-4-(3-pyridyl)butyl-3-phenylpropylamino]carbamate], the inhibition at 1 µM was 80%.

Same assay, conditions: Table 2; 10 μM; read-out: % inhib. at 10 μM

First: COc1cc(C(=O)C(=O)N2CCC[C@H]2COC(=O)N(CCCCc2ccccc2)CCCc2cccnc2)cc(OC)c1OC [Example 11, N-(3,4,5-Trimethoxyphenyl)oxalyl-L-pyrrolidinylmethyl-[N',N'-3-(3-pyridyl)propyl-4-phenylbutylamino]carbamate]
Second: COc1cc(C(=O)C(=O)N2CCC[C@H]2COC(=O)N(CCCCc2cccnc2)CCc2ccccc2)cc(OC)c1OC [Example 15, N-(3,4,5-Trimethoxyphenyl)oxalyl-L-pyrrolidinylmethyl-[N',N'-4-(3-pyridyl)butyl-2-phenylethylamino]carbamate]
The inhibition at 10 µM of the first is higher: 96% for the first, 82% for the second.

First: COc1cc(C(=O)C(=O)N2CCC[C@H]2COC(=O)N(CCCc2cccnc2)CCc2ccccc2)cc(OC)c1OC [Example 12, N-(3,4,5-Trimethoxyphenyl)oxalyl-L-pyrrolidinylmethyl-[N',N'-3-(3-pyridyl)propyl-2-phenylethylamino]carbamate]
Second: COc1cc(C(F)(F)C(=O)N2CCC[C@H]2COC(=O)N(CCCc2cccnc2)Cc2ccccc2)cc(OC)c1OC [Example 28, N-(3,4,5-Trimethoxyphenyl)-difluoroacetyl-L-pyrrolidinylmethyl-[N',N'-3-(3-pyridyl)propyl-benzylamino]carbamate]
The inhibition at 10 µM of the first is lower: 80% for the first, 99% for the second.

Same assay, conditions: Table 2; apparent Ki, 4° C., substrate succinyl-Ala-Leu-Pro-Phe-p-nitroanilide

Compared with `COc1cc(C(F)(F)C(=O)N2CCC[C@H]2COC(=O)N(CCCCc2ccccc2)CCCCc2cccnc2)cc(OC)c1OC` [Example 22, N-(3,4,5-Trimethoxyphenyl)-difluoroacetyl-L-pyrrolidinylmethyl-[N',N'-4-(3-pyridyl)butyl-4-phenylbutylamino]carbamate], `COc1cc(C(F)(F)C(=O)N2CCC[C@H]2COC(=O)N(CCCc2cccnc2)Cc2ccccc2)cc(OC)c1OC` [Example 28, N-(3,4,5-Trimethoxyphenyl)-difluoroacetyl-L-pyrrolidinylmethyl-[N',N'-3-(3-pyridyl)propyl-benzylamino]carbamate] is 2.1-fold higher in Ki: 271 nM for the first, 577 nM for the second. The first binds more tightly here.

With `COc1cc(C(=O)C(=O)N2CCC[C@H]2COC(=O)N(CCCCc2ccccc2)CCCc2cccnc2)cc(OC)c1OC` [Example 11, N-(3,4,5-Trimethoxyphenyl)oxalyl-L-pyrrolidinylmethyl-[N',N'-3-(3-pyridyl)propyl-4-phenylbutylamino]carbamate] the Ki was 537 nM.

Same assay, conditions: Table 3; 1 μM; read-out: % rotamase inhib. at 1 μM

First: COc1cc(C(F)(F)C(=O)N2CCC[C@H]2COC(=O)N(CCCc2ccc(C(=O)O)cc2)CCCc2cccnc2)cc(OC)c1OC [Example 35, N-(3,4,5-Trimethoxyphenyl)-difluoroacetyl-L-pyrrolidinylmethyl-[N',N'-3-(3-pyridyl)propyl-3-(4-carboxyphenyl)propylamino]carbamate]
Second: COc1cccc(CCCN(CCCc2cccnc2)C(=O)OC[C@@H]2CCCN2C(=O)C(F)(F)c2cc(OC)c(OC)c(OC)c2)c1 [Example 37, N-(3,4,5-Trimethoxyphenyl)-difluoroacetyl-L-pyrrolidinylmethyl-[N',N'-3-(3-pyridyl)propyl-3-(3-methoxyphenyl)propylamino]carbamate]
The inhibition at 1 µM of the first is higher: 94% for the first, 93% for the second.

Compared with `COc1cccc(CCCN(CCCc2cccnc2)C(=O)OC[C@@H]2CCCN2C(=O)C(=O)c2cc(OC)c(OC)c(OC)c2)c1` [Example 17, N-(3,4,5-Trimethoxyphenyl)oxalyl-L-pyrrolidinylmethyl-[N',N'-3-(3-pyridyl)propyl-3-(3-methoxyphenyl)propylamino]carbamate], `COc1cccc(CCN(CCCc2cccnc2)C(=O)OC[C@@H]2CCCN2C(=O)C(F)(F)c2cc(OC)c(OC)c(OC)c2)c1` [Example 32, N-(3,4,5-Trimethoxyphenyl)-difluoroacetyl-L-pyrrolidinylmethyl-[N',N'-3-(3-pyridyl)propyl-2-(3-methoxyphenyl)ethylamino]carbamate] is higher in inhibition at 1 µM: 75% for the first, 93% for the second.

`COc1cc(C(F)(F)C(=O)N2CCC[C@H]2COC(=O)N(CCCc2cccnc2)CCc2cccc(C(F)(F)F)c2)cc(OC)c1OC` [Example 34, N-(3,4,5-Trimethoxyphenyl)-difluoroacetyl-L-pyrrolidinylmethyl-[N',N'-3-(3-pyridyl)propyl-2-(3-trifluoromethylphenyl)ethylamino]carbamate] and `COc1ccc(CCN(CCCc2cccnc2)C(=O)OC[C@@H]2CCCN2C(=O)C(F)(F)c2cc(OC)c(OC)c(OC)c2)cc1OC` [Example 33] are the same in inhibition at 1 µM: 96% for the first, 96% for the second.

For `COc1cc(CCCN(CCCc2cccnc2)C(=O)OC[C@@H]2CCCN2C(=O)C(F)(F)c2cc(OC)c(OC)c(OC)c2)cc(OC)c1OC` [Example 39, N-(3,4,5-Trimethoxyphenyl)-difluoroacetyl-L-pyrrolidinylmethyl-[N',N'-3-(3-pyridyl)propyl-3-(3,4,5-trimethoxyphenyl)propylamino]carbamate], the inhibition at 1 µM was 92%.

Same assay, conditions: Table 4; 1 μM; read-out: % rotamase inhib. at 1 μM

Compared with `COc1cc(C(=O)C(=O)N2CCCC[C@H]2CCC(=O)N(CCCc2ccccc2)CCCc2cccnc2)cc(OC)c1OC` [Example 20], `COc1cc(C(=O)C(=O)N2CCC[C@H]2CCC(=O)N(CCCc2ccccc2)CCCc2cccnc2)cc(OC)c1OC` [Example 21, N,N-(3-Phenylpropyl)-3-(3-pyridyl)propyl-2-[(S)-N'-(3,4,5-trimethoxyphenyl)oxalyl-2-pyrrolidinyl]propionamide] is higher in inhibition at 1 µM: 0% for the first, 1% for the second.

For `COc1cc(C(F)(F)C(=O)N2CCCC[C@H]2CCC(=O)N(CCCc2ccccc2)CCCc2cccnc2)cc(OC)c1OC` [Example 44, N,N-(3-Phenylpropyl)-3-(3-pyridyl)propyl-2-[(S)-N'-(3,4,5-Trimethoxyphenyl)-difluoroacetyl-2-piperidinyl]propionamide], the inhibition at 1 µM was 0%.

Test system: HIV-infected cells
Experiment: not given
Settings: cited from earlier work

For `C=CC[C@@H]1/C=C(\C)C[C@H](C)C[C@H](OC)[C@H]2O[C@@](O)(C(=O)C(=O)N3CCCC[C@H]3C(=O)O[C@H](/C(C)=C/[C@@H]3CC[C@@H](O)[C@H](OC)C3)[C@H](C)[C@@H](O)CC1=O)[C@H](C)C[C@@H]2OC` [FK506], the “inhibition of growth of HIV-infected cells” value is listed as “inhibits the growth of HIV-infected cells”.
